Data reported in patent US12435059B2, “AMP-activated protein kinase inhibitors and methods of making and using the same” (The Regents of the University of Colorado, priority 2019, dated 2025).

Assays:
Experiment in all cases: biochemical
Type in all cases: binding
468 kinases [1] = target: 468 kinases (Homo sapiens, UniProt Q06418); conditions: TYRO3; read-out: % Inhibition @ 100 nM
468 kinases [2] = target: 468 kinases (Homo sapiens, UniProt Q07912); conditions: TNK2; read-out: % Inhibition @ 100 nM
468 kinases [3] = target: 468 kinases (Homo sapiens, UniProt P42336); conditions: PIK3CA; read-out: % Inhibition @ 100 nM
468 kinases [4] = target: 468 kinases (Homo sapiens, UniProt P53779); conditions: JNK3; read-out: % Inhibition @ 100 nM
468 kinases [5] = target: 468 kinases (Homo sapiens, UniProt P42336, C420R); conditions: PIK3CA(C420R); read-out: % Inhibition @ 100 nM
468 kinases [6] = target: 468 kinases (Homo sapiens, UniProt Q00535); conditions: CDK5; read-out: % Inhibition @ 100 nM
468 kinases [7] = target: 468 kinases (Homo sapiens, UniProt Q9HAZ1); conditions: CLK4; read-out: % Inhibition @ 100 nM
468 kinases [8] = target: 468 kinases (Homo sapiens, UniProt Q00536); conditions: PCTK1; read-out: % Inhibition @ 100 nM
468 kinases [9] = target: 468 kinases (Homo sapiens, UniProt Q9Y2U5); conditions: MAP3K2; read-out: % Inhibition @ 100 nM
468 kinases [10] = target: 468 kinases (Homo sapiens, UniProt P48729); conditions: CSNK1A1; read-out: % Inhibition @ 100 nM
468 kinases [11] = target: 468 kinases (Homo sapiens, UniProt P51957); conditions: NEK4; read-out: % Inhibition @ 100 nM
468 kinases [12] = target: 468 kinases (Homo sapiens, UniProt P37023); conditions: ACVRL1; read-out: % Inhibition @ 100 nM
468 kinases [13] = target: 468 kinases (Homo sapiens, UniProt P10721, V559D); conditions: KIT(V559D); read-out: % Inhibition @ 100 nM
468 kinases [14] = target: 468 kinases (Homo sapiens, UniProt Q9Y463); conditions: DYRK1B; read-out: % Inhibition @ 100 nM
468 kinases [15] = target: 468 kinases (Homo sapiens, UniProt Q8TD19); conditions: NEK9; read-out: % Inhibition @ 100 nM
468 kinases [16] = target: 468 kinases (Homo sapiens, UniProt Q00537); conditions: PCTK2; read-out: % Inhibition @ 100 nM
468 kinases [17] = target: 468 kinases (Homo sapiens, UniProt Q99683); conditions: ASK1; read-out: % Inhibition @ 100 nM
468 kinases [18] = target: 468 kinases (Homo sapiens, UniProt Q86V86); conditions: PIM3; read-out: % Inhibition @ 100 nM
468 kinases [19] = target: 468 kinases (Homo sapiens, UniProt Q9UKI8); conditions: TLK1; read-out: % Inhibition @ 100 nM
468 kinases [20] = target: 468 kinases (Homo sapiens, UniProt O00444); conditions: PLK4; read-out: % Inhibition @ 100 nM
468 kinases [21] = target: 468 kinases (Homo sapiens, UniProt P00533, DEL752-759); conditions: EGFR(S752-1759del); read-out: % Inhibition @ 100 nM
468 kinases [22] = target: 468 kinases (Homo sapiens, UniProt P22607, G697C); conditions: FGFR3(G697C); read-out: % Inhibition @ 100 nM
468 kinases [23] = target: 468 kinases (Homo sapiens, UniProt Q08881); conditions: ITK; read-out: % Inhibition @ 100 nM
468 kinases [24] = target: 468 kinases (Homo sapiens, UniProt O14578); conditions: CIT; read-out: % Inhibition @ 100 nM
468 kinases [25] = target: 468 kinases (Homo sapiens, UniProt Q9P289); conditions: MST4; read-out: % Inhibition @ 100 nM
468 kinases [26] = target: 468 kinases (Homo sapiens, UniProt P41743); conditions: PRKCI; read-out: % Inhibition @ 100 nM
468 kinases [27] = target: 468 kinases (Homo sapiens, UniProt Q05397); conditions: FAK; read-out: % Inhibition @ 100 nM
468 kinases [28] = target: 468 kinases (Homo sapiens, UniProt P24723); conditions: PRKCH; read-out: % Inhibition @ 100 nM
468 kinases [29] = target: 468 kinases (Homo sapiens, UniProt Q6XUX3); conditions: RIPK5; read-out: % Inhibition @ 100 nM
468 kinases [30] = target: 468 kinases (Homo sapiens, UniProt P22455); conditions: FGFR4; read-out: % Inhibition @ 100 nM
468 kinases [31] = target: 468 kinases (Homo sapiens, UniProt P52333); conditions: JAK3 (JH1domain-catalytic); read-out: % Inhibition @ 100 nM
468 kinases [32] = target: 468 kinases (Homo sapiens, UniProt Q15569); conditions: TESK1; read-out: % Inhibition @ 100 nM
468 kinases [33] = target: 468 kinases (Homo sapiens, UniProt Q8N5S9); conditions: CAMKK1; read-out: % Inhibition @ 100 nM

468 kinases (Homo sapiens, UniProt P37023), sequence (P37023 22-503 limits assumed): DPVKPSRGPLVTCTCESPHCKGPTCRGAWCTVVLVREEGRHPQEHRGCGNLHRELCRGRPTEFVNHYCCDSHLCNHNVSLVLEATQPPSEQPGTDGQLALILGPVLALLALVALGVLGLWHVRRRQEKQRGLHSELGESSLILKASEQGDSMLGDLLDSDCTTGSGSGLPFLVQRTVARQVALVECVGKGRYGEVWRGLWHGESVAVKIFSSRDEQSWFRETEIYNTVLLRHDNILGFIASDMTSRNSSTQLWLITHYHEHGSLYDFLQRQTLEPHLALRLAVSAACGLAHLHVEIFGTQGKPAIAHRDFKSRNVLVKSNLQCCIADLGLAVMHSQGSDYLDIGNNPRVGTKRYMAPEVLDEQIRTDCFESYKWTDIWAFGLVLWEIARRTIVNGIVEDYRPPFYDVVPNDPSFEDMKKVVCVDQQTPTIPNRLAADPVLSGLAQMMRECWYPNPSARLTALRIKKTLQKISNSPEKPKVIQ
468 kinases (Homo sapiens, UniProt P41743), sequence (P41743 2-596 limits assumed): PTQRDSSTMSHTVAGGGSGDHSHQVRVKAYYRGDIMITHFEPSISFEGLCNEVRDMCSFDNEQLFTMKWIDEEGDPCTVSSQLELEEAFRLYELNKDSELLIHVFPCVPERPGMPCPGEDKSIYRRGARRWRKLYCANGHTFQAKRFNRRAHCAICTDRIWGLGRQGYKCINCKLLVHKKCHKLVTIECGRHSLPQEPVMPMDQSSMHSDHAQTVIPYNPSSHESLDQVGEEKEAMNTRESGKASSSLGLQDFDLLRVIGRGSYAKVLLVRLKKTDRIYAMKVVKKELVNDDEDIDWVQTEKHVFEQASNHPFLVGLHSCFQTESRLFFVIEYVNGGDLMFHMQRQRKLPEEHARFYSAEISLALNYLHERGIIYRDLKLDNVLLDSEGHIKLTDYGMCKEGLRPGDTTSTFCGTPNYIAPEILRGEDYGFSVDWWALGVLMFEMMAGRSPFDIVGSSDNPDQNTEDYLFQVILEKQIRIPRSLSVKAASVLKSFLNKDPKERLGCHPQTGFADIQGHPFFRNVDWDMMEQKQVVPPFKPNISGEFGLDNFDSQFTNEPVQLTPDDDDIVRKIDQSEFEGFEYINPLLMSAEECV
468 kinases (Homo sapiens, UniProt Q05397), sequence (Q05397 2-1052 limits assumed): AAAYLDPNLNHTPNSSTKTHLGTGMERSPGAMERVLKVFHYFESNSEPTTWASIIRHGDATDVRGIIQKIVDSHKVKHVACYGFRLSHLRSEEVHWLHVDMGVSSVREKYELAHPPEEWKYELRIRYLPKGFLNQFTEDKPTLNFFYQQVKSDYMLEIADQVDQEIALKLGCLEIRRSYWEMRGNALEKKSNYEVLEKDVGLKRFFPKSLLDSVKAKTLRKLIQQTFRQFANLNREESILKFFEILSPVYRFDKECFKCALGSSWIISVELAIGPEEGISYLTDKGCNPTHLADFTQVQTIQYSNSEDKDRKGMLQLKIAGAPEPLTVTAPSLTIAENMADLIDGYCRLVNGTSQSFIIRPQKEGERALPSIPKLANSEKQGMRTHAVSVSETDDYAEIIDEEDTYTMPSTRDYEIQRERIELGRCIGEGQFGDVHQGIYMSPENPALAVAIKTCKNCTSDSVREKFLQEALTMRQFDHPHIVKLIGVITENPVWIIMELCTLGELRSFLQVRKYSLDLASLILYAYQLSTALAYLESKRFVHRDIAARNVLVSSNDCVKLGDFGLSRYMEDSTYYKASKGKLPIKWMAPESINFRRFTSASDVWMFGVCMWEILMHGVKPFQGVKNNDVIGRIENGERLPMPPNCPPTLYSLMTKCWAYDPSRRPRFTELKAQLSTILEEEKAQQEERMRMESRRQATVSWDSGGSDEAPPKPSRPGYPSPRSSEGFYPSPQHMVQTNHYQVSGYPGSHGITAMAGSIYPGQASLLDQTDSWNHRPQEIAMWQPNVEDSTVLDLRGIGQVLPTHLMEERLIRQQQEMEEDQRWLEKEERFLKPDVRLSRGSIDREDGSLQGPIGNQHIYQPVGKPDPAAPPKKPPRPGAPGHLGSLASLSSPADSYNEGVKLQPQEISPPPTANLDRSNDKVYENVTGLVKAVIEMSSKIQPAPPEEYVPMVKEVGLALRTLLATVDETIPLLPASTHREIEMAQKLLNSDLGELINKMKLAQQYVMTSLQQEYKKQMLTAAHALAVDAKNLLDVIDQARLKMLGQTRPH
468 kinases (Homo sapiens, UniProt P22607, G697C), sequence (P22607 23-806 G697C limits assumed): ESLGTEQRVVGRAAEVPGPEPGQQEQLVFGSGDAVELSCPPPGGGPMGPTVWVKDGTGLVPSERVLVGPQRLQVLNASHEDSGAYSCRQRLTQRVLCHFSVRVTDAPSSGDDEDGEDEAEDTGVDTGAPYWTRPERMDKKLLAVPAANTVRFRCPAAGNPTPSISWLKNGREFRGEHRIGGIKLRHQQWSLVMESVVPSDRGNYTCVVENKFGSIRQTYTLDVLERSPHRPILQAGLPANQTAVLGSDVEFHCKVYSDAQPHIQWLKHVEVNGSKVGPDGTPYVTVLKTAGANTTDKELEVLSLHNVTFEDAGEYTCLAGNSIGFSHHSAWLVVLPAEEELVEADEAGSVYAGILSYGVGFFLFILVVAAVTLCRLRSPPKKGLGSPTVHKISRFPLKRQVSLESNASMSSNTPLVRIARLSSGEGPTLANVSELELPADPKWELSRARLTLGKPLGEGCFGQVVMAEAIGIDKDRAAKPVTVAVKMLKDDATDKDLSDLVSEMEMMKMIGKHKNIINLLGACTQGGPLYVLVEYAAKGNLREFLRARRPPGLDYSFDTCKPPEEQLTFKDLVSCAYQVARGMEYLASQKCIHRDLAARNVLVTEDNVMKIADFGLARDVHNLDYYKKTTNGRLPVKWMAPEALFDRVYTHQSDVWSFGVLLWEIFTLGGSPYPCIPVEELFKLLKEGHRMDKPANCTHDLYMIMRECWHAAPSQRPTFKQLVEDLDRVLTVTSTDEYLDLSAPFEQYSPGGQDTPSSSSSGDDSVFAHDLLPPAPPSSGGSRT
468 kinases (Homo sapiens, UniProt P22455), sequence (P22455 22-802 limits assumed): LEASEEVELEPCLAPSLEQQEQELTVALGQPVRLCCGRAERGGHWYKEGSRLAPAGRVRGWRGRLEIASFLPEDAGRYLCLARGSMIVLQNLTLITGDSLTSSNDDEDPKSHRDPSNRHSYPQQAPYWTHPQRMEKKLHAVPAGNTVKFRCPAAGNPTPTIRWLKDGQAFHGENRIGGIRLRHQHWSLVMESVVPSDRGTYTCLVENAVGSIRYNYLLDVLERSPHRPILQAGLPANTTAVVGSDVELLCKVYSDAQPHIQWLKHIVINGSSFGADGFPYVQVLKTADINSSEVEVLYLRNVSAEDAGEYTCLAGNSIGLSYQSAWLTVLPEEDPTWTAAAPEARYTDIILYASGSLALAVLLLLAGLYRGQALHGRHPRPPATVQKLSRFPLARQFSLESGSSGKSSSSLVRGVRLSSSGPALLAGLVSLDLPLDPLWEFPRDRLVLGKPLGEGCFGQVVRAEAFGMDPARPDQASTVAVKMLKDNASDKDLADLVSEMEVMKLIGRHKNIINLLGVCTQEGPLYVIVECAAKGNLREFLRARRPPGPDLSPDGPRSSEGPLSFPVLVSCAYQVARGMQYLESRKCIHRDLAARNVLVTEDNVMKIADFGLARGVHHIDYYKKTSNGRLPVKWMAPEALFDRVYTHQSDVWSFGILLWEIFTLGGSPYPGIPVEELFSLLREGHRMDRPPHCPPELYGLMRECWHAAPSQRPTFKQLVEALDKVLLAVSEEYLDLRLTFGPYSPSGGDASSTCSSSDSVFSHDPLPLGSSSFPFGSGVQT
468 kinases (Homo sapiens, UniProt P00533, DEL752-759), sequence (P00533 with tags, fused parts or gaps DEL752-759 limits assumed): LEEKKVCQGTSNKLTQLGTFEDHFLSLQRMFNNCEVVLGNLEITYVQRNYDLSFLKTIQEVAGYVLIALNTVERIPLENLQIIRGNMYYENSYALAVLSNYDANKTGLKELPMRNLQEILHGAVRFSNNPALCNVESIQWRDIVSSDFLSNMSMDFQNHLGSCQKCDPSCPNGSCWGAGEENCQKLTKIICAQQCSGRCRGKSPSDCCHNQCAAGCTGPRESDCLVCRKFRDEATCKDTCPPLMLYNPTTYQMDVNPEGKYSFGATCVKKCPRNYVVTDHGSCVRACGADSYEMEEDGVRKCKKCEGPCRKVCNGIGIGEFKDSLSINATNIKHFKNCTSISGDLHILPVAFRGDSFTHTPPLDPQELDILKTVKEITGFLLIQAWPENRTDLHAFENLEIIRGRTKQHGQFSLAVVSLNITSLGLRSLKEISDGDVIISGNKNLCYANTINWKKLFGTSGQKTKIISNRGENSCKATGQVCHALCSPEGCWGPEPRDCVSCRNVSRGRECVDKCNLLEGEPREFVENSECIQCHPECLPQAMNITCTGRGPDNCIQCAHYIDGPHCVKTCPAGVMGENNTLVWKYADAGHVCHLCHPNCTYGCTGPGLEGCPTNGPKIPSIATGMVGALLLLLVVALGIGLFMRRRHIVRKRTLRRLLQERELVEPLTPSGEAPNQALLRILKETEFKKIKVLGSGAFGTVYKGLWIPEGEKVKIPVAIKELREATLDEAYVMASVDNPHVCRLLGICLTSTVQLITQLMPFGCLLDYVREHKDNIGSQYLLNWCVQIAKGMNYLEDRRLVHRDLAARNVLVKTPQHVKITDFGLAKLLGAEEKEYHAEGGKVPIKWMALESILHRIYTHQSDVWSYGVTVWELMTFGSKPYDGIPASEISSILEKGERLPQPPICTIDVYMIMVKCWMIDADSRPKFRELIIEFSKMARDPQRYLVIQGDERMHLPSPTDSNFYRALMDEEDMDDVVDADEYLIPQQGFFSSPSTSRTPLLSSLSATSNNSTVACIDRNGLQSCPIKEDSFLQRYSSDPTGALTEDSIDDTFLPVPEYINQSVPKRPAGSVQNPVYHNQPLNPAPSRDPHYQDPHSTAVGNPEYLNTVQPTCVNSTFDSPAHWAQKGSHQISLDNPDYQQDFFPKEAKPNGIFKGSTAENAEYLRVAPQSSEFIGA

| SMILES | inhibition at 0.1 µM (468 kinases [1]) | inhibition at 0.1 µM (468 kinases [2]) | inhibition at 0.1 µM (468 kinases [3]) | inhibition at 0.1 µM (468 kinases [4]) | inhibition at 0.1 µM (468 kinases [5]) | inhibition at 0.1 µM (468 kinases [6]) | inhibition at 0.1 µM (468 kinases [7]) | inhibition at 0.1 µM (468 kinases [8]) | inhibition at 0.1 µM (468 kinases [9]) | inhibition at 0.1 µM (468 kinases [10]) | inhibition at 0.1 µM (468 kinases [11]) | inhibition at 0.1 µM (468 kinases [12]) | inhibition at 0.1 µM (468 kinases [13]) | inhibition at 0.1 µM (468 kinases [14]) | inhibition at 0.1 µM (468 kinases [15]) | inhibition at 0.1 µM (468 kinases [16]) | inhibition at 0.1 µM (468 kinases [17]) | inhibition at 0.1 µM (468 kinases [18]) | inhibition at 0.1 µM (468 kinases [19]) | inhibition at 0.1 µM (468 kinases [20]) | also measured |
| --- | --- | --- | --- | --- | --- | --- | --- | --- | --- | --- | --- | --- | --- | --- | --- | --- | --- | --- | --- | --- | --- |
| CCN(CC)CCNC(=O)c1c(C)[nH]c(/C=C2\C(=O)Nc3ccc(CCO)cc32)c1C [Compound No. 10, (Z)—N-(2-(Diethylamino)ethyl)-5-((5-(2-hydroxyethyl)-2-oxoindolin-3-ylidene)methyl)-2,4-dimethyl-1H-pyrrole-3-carboxamide] | 0% | 0% | 0% | 0% | 0% | 0% | 95.5% | 0% | 77% | 14% | 0% | 0% | 88% | 75% | 0% | 0% | 0% | 8% | 2% | 0% | inhibition at 0.1 µM (468 kinases [21]): 14%; inhibition at 0.1 µM (468 kinases [22]): 52%; inhibition at 0.1 µM (468 kinases [23]): 12%; inhibition at 0.1 µM (468 kinases [24]): 4%; inhibition at 0.1 µM (468 kinases [25]): 0%; inhibition at 0.1 µM (468 kinases [26]): 12%; inhibition at 0.1 µM (468 kinases [27]): 8%; inhibition at 0.1 µM (468 kinases [28]): 1%; inhibition at 0.1 µM (468 kinases [29]): 0%; inhibition at 0.1 µM (468 kinases [30]): 0%; inhibition at 0.1 µM (468 kinases [31]): 17%; inhibition at 0.1 µM (468 kinases [32]): 10%; inhibition at 0.1 µM (468 kinases [33]): 15% |
| CCN(CC)CCNC(=O)c1c(C)[nH]c(/C=C2\C(=O)Nc3ccc(CCC(N)=O)cc32)c1C [Compound No. 16, (Z)-5-((5-(3-Amino-3-oxopropyl)-2-oxoindolin-3-ylidene)methyl)-N-(2-(diethylamino)ethyl)-2,4-dimethyl-1H-pyrrole-3-carboxamide] | 2.1% | 20% | 14% | 55% | 31% | 0% | 96.2% | 19% | 29% | 27% | 9% | 0% | 0% | 0% | 0% | 17% | 20% | 0% | 0% | 57% | inhibition at 0.1 µM (468 kinases [21]): 19%; inhibition at 0.1 µM (468 kinases [22]): 12%; inhibition at 0.1 µM (468 kinases [23]): 12%; inhibition at 0.1 µM (468 kinases [24]): 0%; inhibition at 0.1 µM (468 kinases [25]): 37%; inhibition at 0.1 µM (468 kinases [26]): 37%; inhibition at 0.1 µM (468 kinases [27]): 100%; inhibition at 0.1 µM (468 kinases [28]): 0%; inhibition at 0.1 µM (468 kinases [29]): 3%; inhibition at 0.1 µM (468 kinases [30]): 1%; inhibition at 0.1 µM (468 kinases [31]): 48%; inhibition at 0.1 µM (468 kinases [32]): 5%; inhibition at 0.1 µM (468 kinases [33]): 28% |
